Laboratory results: patent US6740637B1, “Chlorophyll and bacteriochlorophyll derivatives, their preparation and pharmaceutical compositions comprising them” (priority 1998, dated 2004)
“Also recorded” adds a separate entry of the source.

Assays:
[1] = cited from earlier work
MR2 melanoma tumors = test: Photodynamic treatment of melanoma tumor implanted in CD1 nude mouse, MRI follow up; format: in vivo
Experimental: (a) Tumor implantation: M2R cells are routinely maintained as monolayers. The cells are scraped with the aid of a rubber policeman and suspended in normal saline, 1×10^6 cells/0.1 ml are injected subcutaneously on the flank or batch of C57Bl or CD1 nude male mice. […] A similar procedure is used in nude mice in which either mouse M2R or human (FO/1, MRI/H/221, HS695T amelanotic melanoma or SK/MEL/28) melanoma tumors are implanted.

[2] = tested on: Staphylococcus Aureus Cowan I; format: cell-based
Experimental: Light source: All the phototoxicity assays were performed with a home-built Xenon lamp with vertical emission providing 140 mW/cm^2 at the target level, using glass or a Cr2K2O7 liquid filter transferring light at […].
Bacterial culture: Lyophilized Staphylococcus Aureus Cowan I, kindly provided by Prof. Z. Eshar, the Weizmann Institute, Israel were grown in liquid brain heart infusion (BHI) media for 18 hours at 37° C. with continuous shaking.
Phototoxicity experiments: The standard experimental design consisted of four discrete steps: (i) Pre-incubation: Fresh bacterial suspensions (200 μl) in 0.1M carbonate buffer, pH 8.6, were incubated with the test sensitizer and/or inhibitor at the indicated concentrations for 1 hour in the dark. (ii) Wash: Unbound sensitizer was removed by washing and resuspension in the same buffer (x3). (iii) Illumination: The bacterial suspensions were exposed to light (140 mW/cm^2, λ>550 nm) for 5 min. (iv) Assessment of survival: Samples of the bacterial suspensions (30 μl) were cultured in 2 ml of BHI liquid media at 37° C. (shaking) for 2 hr. Bacterial density was monitored by turbidity measurements at λ=660 nm, taking OD660=1 for 5×10^7 bacteria/ml. Each experiment consisted of one experimental and three control groups:
Experimental group: Bacteria were subjected to complete treatment (varying one experimental factor). Light control: irradiated bacteria, not treated with sensitizer. Dark control: non-irradiated bacteria, treated with sensitizer in the dark. Untreated control: values used for calculation of 100% survival.

cell cultures = conditions: cited from earlier work
[3] = in vivo; cited from earlier work
C57Bl mice = test: Toxicity of serine conjugates in mice in the absence of irradiation; format: in vivo, mouse; conditions: injections of up to 40 mg/kg body weight, up to 14 days, no irradiation
Experimental: (d) Toxicity of the Chl and Bchl-serine conjugates Chla-L-Ser-OMe and Bchla-L-Ser-OMe in C57Bl mice under normal housing conditions in the absence of irradiation was estimated by injection of the compound dissolved in 10% ethanol/PBS. Control mice were injected with the vehicle only. […] This dose of drug was thus far the highest used and LD50 vs. EC50 of treatment (margins of therapeutic index) have yet to be determined.

CC[C@H]1c2cc3[n-]c4c(c3C)C(=O)[C@H](C(=O)OC)c4c3nc(cc4[n-]c(cc(n2)[C@@H]1C)c(C(C)=O)c4C)[C@@H](C)[C@@H]3CCC(=O)OC[C@H](N)C(=O)OC.[Mg+2] [Bchla-L-Ser-OMe, L-seryl Methyl Ester Bacteriochlorophyllide a]
water solubility [1]: water soluble | tumor by MRI after first treatment (MR2 melanoma tumors; 50-150 μg into and around tumor, halogen light 60 min, 84 h later): essentially eliminated | tumor recurrence by MRI after second treatment (MR2 melanoma tumors; after a second treatment (2-3 weeks later)): no recurrence | tumor recurrence by MRI after first treatment (MR2 melanoma tumors; two weeks after first treatment): small recurrence; also recorded: some recurrence | concentration of maximal phototoxicity [2]: 0.5 µM | phototoxicity LD50 ([2]; as described in Example 17): 70 nM | dark toxicity ([2]; no light, up to highest tested concentration (10 μM)): no detectable dark toxicity | LD50 (phototoxicity in cell cultures) (cell cultures): 50 nM | clearance from the animal body [3]: 16 h | effect on behavior and well being of mice (C57Bl mice): no noticeable effect on the behavior and well being of the mice
